9 compounds from publication PMC8318587, “Structure-guided microbial targeting of antistaphylococcal prodrugs” (eLife, 2021) can be followed below.

Values after ≈ are worked out from the molar mass of the structure shown. Like-named read-outs stand apart in the source and are kept apart here. Bounds are passed on as bounds.

One assay has as its system mouse sera. Description: Esterase substrate specificity, fluorogenic SAR library kinetics in serum. It is filed as in vitro ADME. The protocol: (§1) Kinetic measurements were performed according to [White et al., 2018] with minor variation. Lyophilized human and mouse sera were resuspended according to manufacturer instructions in highly pure, filtered water at protein concentrations of 85 mg/mL and 70 mg/mL, respectively. One milliliter of resuspended serum was added to a 24 mL mastermix for a final concentration of 31.25 mM Tris pH 7.5, 312.5 mM NaCl, 1.25 mM MgCl2, 12.5% glycerol, and 3.4 mg/mL or 2.8 mg/mL protein for human and mouse serum, respectively. For purified proteins, 5 mL of a 75 µg/mL stock was added to yield a 20 mL mastermix containing 31.25 mM Tris pH 7.5, 312.5 mM NaCl, 1.25 mM MgCl2, 12.5% glycerol, and 18.75 µg/mL protein. Mastermix was stored on ice when not in use. Twenty microliters of mastermix was transferred to a black, 96-well half area microplate (Corning, CLS3993) and prewarmed at 37°C. Fluorogenic substrates were prepared as 10 mM stock solutions in 100% DMSO and were diluted in water to a starting concentration of 500 µM. Enzyme catalyzed substrate hydrolysis was initiated by addition of 5 µL substrate dilution in technical duplicate to the prewarmed serum or protein solution. Final assay concentrations were as follows: 25 mM Tris pH 7.5, 250 mM NaCl, 1 mM MgCl2, 10% glycerol, and protein at a concentration of 2.72 mg/mL (human serum), 2.24 mg/mL (mouse serum), or 15 µg/mL (FrmB, GloB). The resulting change in fluorescence (λex = 485 nm, λem = 520 nm) was followed for 15 min at 37°C, collecting data every 30 s on a FLUOstar Omega microplate reader (BMG Labtech). Fluorescence measurements were converted to molar concentrations using a fluorescein standard curve (2.5 nmol–0.6 pmol). The initial rates of reaction were measured three independent times with two technical replicates per measurement and fit to a line using GraphPad Prism (GraphPad Software, La Jolla, CA). Initial rates of reaction were plotted versus the concentration of substrate and fit to a standard Michaelis–Menten equation (v = Vmax[S]/(Km + [S])), yielding estimates of Vmax and Km. Values for kcat and kcat/Km were calculated based on amount of enzyme added when purified enzymes were used.

Another assay relates to human sera. Described as above. It is filed as in vitro ADME. The method, then:
as §1

For the next assay, the target named is T1, SaFrmB (Staphylococcus aureus, UniProt A0A0H3KFB7).
T1 construct: made in house; host or cells: E. coli BL21 (DE3)
T1 sequence (A0A0H3KFB7 1-253): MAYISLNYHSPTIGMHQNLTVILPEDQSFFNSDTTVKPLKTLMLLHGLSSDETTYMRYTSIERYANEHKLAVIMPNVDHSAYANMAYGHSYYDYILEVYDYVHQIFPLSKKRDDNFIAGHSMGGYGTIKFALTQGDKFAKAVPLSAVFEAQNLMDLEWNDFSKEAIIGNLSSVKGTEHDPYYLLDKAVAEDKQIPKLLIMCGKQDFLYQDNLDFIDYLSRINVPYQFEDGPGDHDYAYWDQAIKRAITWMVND
Description: Esterase substrate specificity, fluorogenic SAR library kinetics. It is filed as biochemical. The settings on record: SaFrmB 15 µg/mL, pH 7.5, 37°C. The protocol: as §1

The target in another assay is T2, SaGloB (Staphylococcus aureus, UniProt P0DY75).
T2 sequence (P0DY75 1-207): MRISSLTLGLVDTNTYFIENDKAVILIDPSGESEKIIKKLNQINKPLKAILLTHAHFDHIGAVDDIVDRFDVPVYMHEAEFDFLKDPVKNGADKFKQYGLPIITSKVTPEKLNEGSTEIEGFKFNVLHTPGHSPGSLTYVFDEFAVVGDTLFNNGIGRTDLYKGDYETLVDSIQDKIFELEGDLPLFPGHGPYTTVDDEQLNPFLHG
The assay is described as above. It counts as biochemical. The settings on record: SaGloB; for Km: fluorogenic ester substrate. The protocol:
as §1

The subject of assay [1] is S. aureus Newman. It counts as cell-based, Staphylococcus aureus. The settings on record: for Mutational frequency at 4× MIC / Mutational frequency at 10× MIC: LB agar, 24 hr, mean ± SD. The method, then:
(§2) Antibiotic resistance frequency was determined on LB agar plates containing 4× and 10×, the minimum inhibitory concentrations of several antibiotics. MICs were determined for S. aureus Newman in liquid LB media. […] Briefly, S. aureus Newman was grown in LB media to late log-phase and centrifuged at 4000 × g for 15 min before resuspension at an OD600 nm of 30 (~1E11 CFU/mL) in LB media. One hundred microliter aliquots of concentrated S. aureus was plated in duplicate on selective and non-selective plates and incubated at 37°C. After 24 hr, mutation rates were calculated by counting the number of colonies present and dividing by the total number of colonies plated. Experiments were performed in triplicate.

The subject of assay [2] is S. aureus Newman. Briefly: Minimum inhibitory concentration (MIC) in liquid LB media. It is filed as cell-based. The settings on record: Staphylococcus aureus. The protocol: as §2
Where [3] appears, read: S. aureus Newman, liquid LB media, read-out: MIC.

A word on the Km: it is the concentration of substrate that gives half-maximal velocity. Take `O=C(COc1ccccc1)OCOc1ccc2c(c1)Oc1cc(OCOC(=O)COc3ccccc3)ccc1C21OC(=O)c2ccccc21` [11O]: the Km in the assay on mouse sera, with human sera, on SaFrmB and at SaGloB was > 50 µM each time.

`O=C(CSc1ccccc1)OCOc1ccc2c(c1)Oc1cc(OCOC(=O)CSc3ccccc3)ccc1C21OC(=O)c2ccccc21` [11S]: the Km in the assay with mouse sera, with human sera, at SaFrmB and on SaGloB was > 50 µM throughout.

With `C=CCOC(C)C(=O)OCOc1ccc2c(c1)Oc1cc(OCOC(=O)C(C)OCC=C)ccc1C21OC(=O)c2ccccc21` (stereo not drawn) [12O], the values for the Km with mouse sera, with human sera and on SaFrmB were > 50 µM, 42.2 µM and > 50 µM, respectively. Moreover, the Vmax in the assay with human sera is reported as 4.00 pmol*min-1*mg sera-1. Besides, the kcat/kuncat at SaGloB (normalised to uncatalysed hydrolysis rate) is listed as 1.28 103.

As to `C=CCSC(C)C(=O)OCOc1ccc2c(c1)Oc1cc(OCOC(=O)C(C)SCC=C)ccc1C21OC(=O)c2ccccc21` (stereo not drawn) [12S], the Km with mouse sera, with human sera, at SaFrmB and on SaGloB was > 50 µM in each case.

The term MIC denotes the lowest concentration found to suppress growth. As for `CCC[C@@H]1C[C@@H](C(=O)N[C@@H]([C@H]2O[C@H](SC)[C@H](O)[C@@H](O)[C@H]2O)[C@H](C)Cl)N(C)C1` [Clindamycin], in the assay with S. aureus Newman [1], the “Mutational frequency at 4× MIC” value is reported as <1 E-10 and the “Mutational frequency at 10× MIC” value is reported as <1 E-10. Further, the MIC with S. aureus Newman [2] (setting [3]) was 0.25 µg/mL (≈ 0.588 µM).

As for `CC(=O)NC[C@H]1CN(c2ccc(N3CCOCC3)c(F)c2)C(=O)O1` [Linezolid], in the assay with S. aureus Newman [1], the “Mutational frequency at 4× MIC” value was <1 E-10 and the “Mutational frequency at 10× MIC” value is <1 E-10. Further, the MIC with S. aureus Newman [2] (setting [3]) came to 1.67 µg/mL (≈ 4.95 µM).

Consider `CCOc1ccc2ccccc2c1C(=O)N[C@@H]1C(=O)N2[C@@H]1SC(C)(C)[C@@H]2C(=O)O` [Nafcillin], for which, in the assay with S. aureus Newman [1], the “Mutational frequency at 4× MIC” value is <1 E-10 and the “Mutational frequency at 10× MIC” value is <1 E-10. The MIC in the assay on S. aureus Newman [2] (setting [3]) came to 0.5 µg/mL (≈ 1.21 µM).

`CO[C@H]1/C=C/O[C@@]2(C)Oc3c(C)c(O)c4c(O)c(c(/C=N/N5CCN(C)CC5)c(O)c4c3C2=O)NC(=O)/C(C)=C\C=C\[C@H](C)[C@H](O)[C@@H](C)[C@@H](O)[C@@H](C)[C@H](OC(C)=O)[C@@H]1C` [Rifampicin]: in the assay with S. aureus Newman [1], the “Mutational frequency at 4× MIC” value was 8.96 ± 0.20 E-08 and the “Mutational frequency at 10× MIC” value is on record as 7.64 ± 2.10 E-08. The Spontaneous resistance frequency in the assay with S. aureus Newman [1] (at 4 and 10 times the MIC) is listed as ~ 8E-8. In addition, the MIC in the assay on S. aureus Newman [2] (setting [3]) worked out at 0.0075 µg/mL (≈ 0.00911 µM).

With `CN[C@H](CC(C)C)C(=O)N[C@H]1C(=O)N[C@@H](CC(N)=O)C(=O)N[C@H]2C(=O)N[C@H]3C(=O)N[C@H](C(=O)N[C@H](C(=O)O)c4cc(O)cc(O)c4-c4cc3ccc4O)[C@H](O)c3ccc(c(Cl)c3)Oc3cc2cc(c3O[C@@H]2O[C@H](CO)[C@@H](O)[C@H](O)[C@H]2O[C@H]2C[C@](C)(N)[C@H](O)[C@H](C)O2)Oc2ccc(cc2Cl)[C@H]1O` [Vancomycin], in the assay with S. aureus Newman [1], the “Mutational frequency at 4× MIC” value is listed as <1 E-10 and the “Mutational frequency at 10× MIC” value is listed as <1 E-10. In the assay on S. aureus Newman [2] (NEWMAN), this compound gave an MIC of 2 µg/mL (≈ 1.38 µM).
